Test results reported in patent publication US8937078B2, “Quinazolinones as prolyl hydroxylase inhibitors” (Janssen Pharmaceutica NV, priority 2009, dated 2015).

Key:
[1] = molecular target: T1, human PHD2 (PHD2181-417) (Homo sapiens, UniProt Q9GZT9); test: PHD enzymatic assay ([14C]-succinic acid production); assay type: biochemical; conditions: PHD2181-417, HIF-1α peptide 10 μM, average of results; for IC50: read-out: Enzyme pIC50 (converted)
T1 construct: Smt (SUMO) tag (cleaved yes); made in house; host or cells: E. coli BL21 (pBAD vector)
Method in brief: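 Activity measured as [14C]-succinic acid formed from [5-14C]-2-oxoglutarate over 10 minutes, with peptide substrate at 10 μM, in Tris-HCl pH 7.5 buffer containing catalase, DTT and ascorbate. Unreacted oxoglutarate removed by DNP derivatisation; supernatant beta-counted.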

[2] = test system: Hep-3B cells; test: Cellular assay: erythropoietin secretion in Hep-3B cells; assay type: cell-based, human; conditions: Homo sapiens, Hep3B, 100 μM compound, 24 hours, percent of EPO secretion relative to assay control compound 7-[(4-Chloro-phenyl)-(5-methyl-isoxazol-3-ylamino)-methyl]-quinolin-8-ol, read-out: Cellular % EPO Stimulation
Method in brief: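 Hep-3B cells in DMEM with 10% FBS, treated 24 h after plating with compounds at 100 μM final for a further 24 h. Secreted EPO in supernatant measured by MSD electrochemiluminescence sandwich immunoassay with anti-EPO detection antibody.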

T1 sequence (Q9GZT9 181-417): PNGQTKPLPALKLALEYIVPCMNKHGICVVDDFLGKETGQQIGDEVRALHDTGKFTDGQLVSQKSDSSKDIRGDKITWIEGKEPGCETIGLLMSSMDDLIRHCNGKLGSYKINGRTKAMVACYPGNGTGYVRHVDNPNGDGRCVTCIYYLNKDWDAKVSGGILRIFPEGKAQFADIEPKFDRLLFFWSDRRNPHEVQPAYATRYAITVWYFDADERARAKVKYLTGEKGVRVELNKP

SMILES | IC50 [1] [nM] | Enzyme pIC50 [1] | Emax at 100 µM [2] [%]
O=C(O)c1cnn(-c2nc3cc4c(cc3c(=O)[nH]2)OCCCO4)c1 [Example 137, 1-(4-Oxo-3,4,8,9-tetrahydro-7H-6,10-dioxa-1,3-diaza-cyclohepta[b]naphthalen-2-yl)-1H-pyrazole-4-carboxylic acid] | 50.1 |  | 15
O=C(O)c1cnn(-c2nc3cc(-c4ccc(Cl)cc4)ccc3c(=O)[nH]2)c1 [Example 187, 1-[7-(4-Chloro-phenyl)-4-oxo-3,4-dihydro-quinazolin-2-yl]-1H-pyrazole-4-carboxylic acid] | 63.1 |  | 24
O=C(O)c1cnn(-c2nc3ccc(NCc4ccccc4Cl)cc3c(=O)[nH]2)c1 [Example 174, 1-[6-(2-Chloro-benzylamino)-4-oxo-3,4-dihydro-quinazolin-2-yl]-1H-pyrazole-4-carboxylic acid] | 20 |  | 24
O=C(O)c1cnn(-c2nc3ccc(-c4cccc(-c5ccccc5)c4)cc3c(=O)[nH]2)c1 [Example 70, 1-(6-Biphenyl-3-yl-4-oxo-3,4-dihydro-quinazolin-2-yl)-1H-pyrazole-4-carboxylic acid] | 31.6 |  | 41
Cc1cccc(C)c1OCc1ccc2nc(-n3cc(C(=O)O)cn3)[nH]c(=O)c2c1 [Example 75, 1-[6-(2,6-Dimethyl-phenoxymethyl)-4-oxo-3,4-dihydro-quinazolin-2-yl]-1H-pyrazole-4-carboxylic acid] | 20 |  | 20
O=C(O)c1cnn(-c2nc3cc(F)c(Oc4cccc(C(F)(F)F)c4)cc3c(=O)[nH]2)c1 [Example 95, 1-[7-fluoro-4-oxo-6-(3-trifluoromethyl-phenoxy)-3,4-dihydro-quinazolin-2-yl]-1H-pyrazole-4-carboxylic acid] | 20 |  | 61

Continued, in another order:

IC50 [1] [nM] | Enzyme pIC50 [1] | SMILES | Emax at 100 µM [2] [%]
20 |  | O=C(O)c1cnn(-c2nc3ccc(-c4ccc(F)cc4)cc3c(=O)[nH]2)c1 [Example 197, 1-[6-(4-Fluoro-phenyl)-4-oxo-3,4-dihydro-quinazolin-2-yl]-1H-pyrazole-4-carboxylic acid] | 108
25.1 |  | NC(=O)c1cccc(CNc2ccc3nc(-n4cc(C(=O)O)cn4)[nH]c(=O)c3c2)c1 [Example 179, 1-[6-(3-Carbamoyl-benzylamino)-4-oxo-3,4-dihydro-quinazolin-2-yl]-1H-pyrazole-4-carboxylic acid] | 12
 | 8.1 | Cc1ccccc1-c1ccc2nc(-n3cc(C(=O)O)cn3)[nH]c(=O)c2c1 [Example 69, 1-(4-Oxo-6-o-tolyl-3,4-dihydro-quinazolin-2-yl)-1H-pyrazole-4-carboxylic acid] | 57
10 |  | CCOc1ccc2nc(-n3cc(C(=O)O)cn3)[nH]c(=O)c2c1 [Example 121, 1-(6-Ethoxy-4-oxo-3,4-dihydro-quinazolin-2-yl)-1H-pyrazole-4-carboxylic acid] | 30
63.1 |  | O=C(O)c1cnn(-c2nc3ccc(Br)cc3c(=O)[nH]2)c1 [Example 13, 1-(6-Bromo-4-oxo-3,4-dihydro-quinazolin-2-yl)-1H-pyrazole-4-carboxylic acid] | 35
20 |  | Cc1ccc(Oc2cc3c(=O)[nH]c(-n4cc(C(=O)O)cn4)nc3cc2C)cc1C [Example 92, 1-[6-(3,4-dimethyl-phenoxy)-7-methyl-4-oxo-3,4-dihydro-quinazolin-2-yl]-1H-pyrazole-4-carboxylic acid] | 137
20 |  | O=C(O)c1cnn(-c2nc3cc(F)c(Oc4cccc(F)c4)cc3c(=O)[nH]2)c1 [Example 56, 1-[7-Fluoro-6-(3-fluoro-phenoxy)-4-oxo-3,4-dihydro-quinazolin-2-yl]-1H-pyrazole-4-carboxylic acid] | 68
20 |  | Cc1cc2nc(-n3cc(C(=O)O)cn3)[nH]c(=O)c2cc1Oc1c(C)cccc1C [Example 27, 1-[6-(2,6-Dimethyl-phenoxy)-7-methyl-4-oxo-3,4-dihydro-quinazolin-2-yl]-1H-pyrazole-4-carboxylic acid] | 10
